These results are taken from patent publication US20230096028A1, “BICYCLIC HETEROCYCLYL COMPOUNDS AND USES THEREOF” (Revolution Medicines, Inc., priority 2019, published 2023).

The IC50 is the concentration that gives 50% inhibition. The Kd is the constant that tells how readily two partners part at equilibrium.

For experiment [1], the system named is PC-9 cells (EGFR Ex19Del). The experiment is described as follows: Potency Assay: pERK (SOS1 pERK IC50 Assay, AlphaLISA SureFire Ultra p-ERK1/2). Type of experiment: cell-based. The conditions noted are these: Homo sapiens; PC-9 cells (EGFR Ex19Del), 1 hour incubation, AlphaLISA p-ERK1/2; read-out: SOS1 pERK IC50. A digest of the protocol:
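Cellular pERK1/2 by AlphaLISA SureFire Ultra after 1 h compound exposure (37° C., highest concentration 10 μM, 3-fold steps, duplicates) of EGFR Ex19Del PC-9 cells seeded the day before. A 4-parameter fit of signal versus log concentration gives IC50.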
A general note: Bead proximity is the source of the signal in Alpha formats.

Experiment [2] has as its target T1, SOS1 catalytic domain (residues 564-1049) (Homo sapiens, UniProt Q07889).
T1 sequence (Q07889 564-1049): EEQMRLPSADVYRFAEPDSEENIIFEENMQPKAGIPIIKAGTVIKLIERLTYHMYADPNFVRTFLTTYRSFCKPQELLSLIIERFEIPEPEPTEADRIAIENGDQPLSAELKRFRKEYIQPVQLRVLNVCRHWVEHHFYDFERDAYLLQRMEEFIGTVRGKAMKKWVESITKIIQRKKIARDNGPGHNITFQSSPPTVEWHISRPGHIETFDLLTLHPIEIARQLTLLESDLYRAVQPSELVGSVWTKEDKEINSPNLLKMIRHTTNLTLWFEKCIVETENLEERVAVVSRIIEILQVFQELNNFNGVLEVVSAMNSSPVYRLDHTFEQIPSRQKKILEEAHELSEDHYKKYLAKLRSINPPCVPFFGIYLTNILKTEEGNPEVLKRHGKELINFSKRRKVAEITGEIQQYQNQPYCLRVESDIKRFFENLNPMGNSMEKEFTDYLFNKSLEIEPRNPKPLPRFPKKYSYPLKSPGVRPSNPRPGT
The experiment is described as follows: Mode of Action Assay: inhibition of SOS1 nucleotide exchange activity (SOS1 TR-FRET IC50 Assay).

Experiment [3] has as its target T1, SOS1 catalytic domain (residues 564-1049). Kind of experiment: Potency Assay: binding affinity to SOS1 using Surface Plasmon Resonance (SPR). Also on record: SOS1 catalytic domain (residues 564-1049) immobilized on a sensor chip. The conditions noted are these: immobilized SOS1 catalytic domain (residues 564-1049), read-out: SOS1 SPR Equilibrium Kd. In a few lines: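 Kd was obtained by plotting binding response, taken just before association ended, versus compound concentration on a Biacore 8K. Compounds flowed at 50 μL/min over streptavidin-captured avi-SOS1 catalytic domain (~6000 RU), followed by buffer dissociation; HEPES 0.01 M/NaCl 0.15 M/0.05% P20 buffer, double-referenced.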

`C[C@@H](Nc1nc(Cl)nc2c1CN(S(=O)(=O)C1CNC1)CC2)c1cc(N)cc(C(F)(F)F)c1` [Example 451]: the IC50 in experiment [1] and in experiment [2] was less than 1000 nM in each case. Also, in experiment [3], the Kd is less than 400 nM.
Consider `C[C@@H](Nc1nc(Cl)nc2c1CN(C(=O)C1(O)COC1)C2)c1cccc(C(F)(F)F)c1` [Example 279], for which the 50% inhibitory concentration (IC50) in experiment [1] and in experiment [2] was less than 1000 nM in each case. In experiment [3], the equilibrium dissociation constant (Kd) was more than 400 nM.
Turning to `C[C@@H](Nc1nc(Cl)nc2c1CN(C(=O)N1CCNc3ncncc31)C2)c1cccc(C(F)(F)F)c1` [Example 362], the IC50 in experiment [1] and in experiment [2] was less than 1000 nM each time. In addition, the Kd in experiment [3] is less than 400 nM.
In the case of `C[C@@H](Nc1nc(Cl)nc2c1CN(C(=O)C1CNCCO1)C2)c1cccc(C(F)F)c1F` (stereo partly drawn) [Example 288], the IC50 in experiment [1] and in experiment [2] was less than 1000 nM each time. Further, the Kd in experiment [3] is less than 400 nM.
For `C[C@@H](Nc1nc(Cl)nc2c1CN(C(=O)N1C[C@H]3C[C@@H]1CN3)C2)c1cccc(C(F)F)c1F` [Example 406], the IC50 in experiment [1] and in experiment [2] was less than 1000 nM each time. Moreover, the Kd in experiment [3] was less than 400 nM.
Regarding `C[C@@H](Nc1nc(Cl)nc2c1CN(C(=O)C1(C#N)CC1)CC2)c1cc(N)cc(C(F)(F)F)c1` [Example 194], the IC50 is less than 1000 nM in experiment [1] and more than 1000 nM in experiment [2]. The dissociation constant Kd in experiment [3] was more than 400 nM.
Take `CNc1nc2c(c(N[C@H](C)c3cc(N)cc(C(F)(F)F)c3)n1)CN(C(=O)N1CCOCC1)C2` [Example 125, N4-[(1R)-1-[3-amino-5-(trifluoro-methyl)phenyl]ethyl]-N2-methyl-6-(morpholine-4-carbonyl)-5H,6H,7H-pyrrolo[3,4-d]pyrimidine-2,4-diamine]: the IC50 in experiment [1] and in experiment [2] was less than 1000 nM in each case. The Kd in experiment [3] was less than 400 nM.
With `C[C@@H](Nc1nc(Cl)nc2c1CN(C(=O)N1CCOCC1)C2)c1cccc(CF)c1F` [Example 527, 2-chloro-N-[(1R)-1-[2-fluoro-3-(fluoromethyl)phenyl]ethyl]-6-(morpholine-4-carbonyl)-5H,6H,7H-pyrrolo[3,4-d]pyrimidin-4-amine], the IC50 is more than 1000 nM in experiment [1] and less than 1000 nM in experiment [2]. The Kd in experiment [3] is less than 400 nM.
On the same counts, the results for `C[C@@H](Nc1nc(Cl)nc2c1CN(C(=O)c1ccccn1)CC2)c1cc(N)cc(C(F)(F)F)c1` [Example 247] are more than 1000 nM, more than 1000 nM and more than 400 nM.
For `C[C@@H](Nc1nc(Cl)nc2c1CN(C(=O)C1(F)CCOCC1)C2)c1cc(N)cc(C(F)(F)F)c1` [Example 256], the IC50 in experiment [1] and in experiment [2] was less than 1000 nM throughout. Moreover, the Kd in experiment [3] was less than 400 nM.
Turning to `C[C@@H](Nc1nc(Cl)nc2c1CN(C(=O)N1CCNc3ncccc31)C2)c1cc(N)cc(C(F)(F)F)c1` [Example 138], the IC50 in experiment [1] and in experiment [2] was less than 1000 nM in each case. Moreover, the equilibrium dissociation constant (Kd) in experiment [3] is less than 400 nM.
Consider `C[C@@H](Nc1nc(Cl)nc2c1CN(C(=O)CC1CCN(C)C1)C2)c1cc(N)cc(C(F)(F)F)c1` (stereo partly drawn) [Example 257], for which the IC50 in experiment [1] is more than 1000 nM; in experiment [2], less than 1000 nM. Besides, the Kd in experiment [3] is less than 400 nM.
The like results for `C[C@@H](Nc1nc(Cl)nc2c1CN(C(=O)C13COC(C1)C3)CC2)c1cc(N)cc(C(F)(F)F)c1` [Example 212] were, in that order, less than 1000 nM, more than 1000 nM and more than 400 nM.
Regarding `C[C@@H](Nc1nc(Cl)nc2c1CN(C(=O)N1CCNCC1c1cccnc1)C2)c1cccc(C(F)F)c1F` (stereo partly drawn) [Example 386], the half-maximal inhibitory concentration (IC50) in experiment [1] and in experiment [2] was less than 1000 nM in each case. Further, the equilibrium dissociation constant (Kd) in experiment [3] is less than 400 nM.
For `C[C@@H](Nc1nc(Cl)nc2c1CN(C(=O)[C@H]1CCOC[C@H]1N)C2)c1cccc(C(F)F)c1F` [Example 306], the IC50 in experiment [1] and in experiment [2] was less than 1000 nM each time. Further, the dissociation constant Kd in experiment [3] was less than 400 nM.
On to `C[C@@H](Nc1nc(Cl)nc2c1CN(C(=O)N1CCOCC1)C2)c1cccc(C(C)(F)F)c1` [Example 467, [2-chloro-4-[[(1R)-1-[3-(1,1-difluoroethyl)phenyl]ethyl]amino]-5,7-dihydropyrrolo[3,4-d]pyrimidin-6-yl]-morpholino-methanone], for which the 50% inhibitory concentration (IC50) in experiment [1] was more than 1000 nM; in experiment [2] it was less than 1000 nM. The Kd in experiment [3] is less than 400 nM.
On the same counts, the results for `Cc1nc(N[C@H](C)c2cccc(C(F)F)c2F)c2c(n1)N(C)C(=O)N(C1CCN(C)CC1)C2` [Example 445, (R)-5-((1-(3-(difluoromethyl)-2-fluorophenyl)ethyl)amino)-1,7-dimethyl-3-(1-methylpiperidin-4-yl)-3,4-dihydropyrimido[4,5-d]pyrimidin-2(1H)-one] are more than 1000 nM, less than 1000 nM and more than 400 nM.
On the same counts, the results for `COc1nccc(C(=O)N2CCc3nc(Cl)nc(N[C@H](C)c4cc(N)cc(C(F)(F)F)c4)c3C2)n1` [Example 234] are more than 1000 nM, more than 1000 nM and more than 400 nM.
The like results for `C[C@@H](Nc1nc(Cl)nc2c1CN(C(=O)C1CCN3CCOCC13)C2)c1cccc(C(F)F)c1F` (stereo partly drawn) [Example 318] were, in that order, more than 1000 nM, less than 1000 nM and less than 400 nM.
Take `C[C@@H](Nc1nc(Cl)nc2c1CN(C(=O)N1CC3CC(C1)N3C)C2)c1cccc(C(F)F)c1F` [Example 420]: the IC50 in experiment [1] and in experiment [2] was less than 1000 nM each time. The Kd in experiment [3] was less than 400 nM.
For the molecule `COC1(C(=O)N2Cc3nc(Cl)nc(N[C@H](C)c4cccc(C(F)F)c4F)c3C2)CCN(C2COC2)CC1` [Example 325], the IC50 in experiment [1] and in experiment [2] was less than 1000 nM each time. Moreover, the Kd in experiment [3] is less than 400 nM.
For the molecule `C[C@@H](Nc1nc(CNC2CC2)nc2c1CN(C(=O)N1CCOCC1)C2)c1cccc(C(F)F)c1F` [Example 508, 2-[(cyclopropylamino)methyl]-N-{1-[3-(difluoromethyl)-2-fluorophenyl]ethyl}-6-(morpholine-4-carbonyl)-5H,6H,7H-pyrrolo[3,4-d]pyrimidin-4-amine], the figures for the half-inhibitory concentration (IC50) in experiment [1] and in experiment [2] were more than 1000 nM and less than 1000 nM, respectively. Further, the equilibrium dissociation constant (Kd) in experiment [3] was less than 400 nM.
The like results for `C[C@@H](Nc1nc(Cl)nc2c1CN(C(=O)C1(C)CCN(C3COC3)C1)C2)c1cccc(C(F)F)c1F` (stereo partly drawn) [Example 341] were, in that order, less than 1000 nM, less than 1000 nM and less than 400 nM.
Regarding `C[C@@H](Nc1nc(Cl)nc2c1CN(C(=O)[C@]13CN[C@H](CO1)C3)C2)c1cccc(C(F)F)c1F` [Example 290], the concentration for half-maximal inhibition (IC50) in experiment [1] and in experiment [2] was less than 1000 nM in each case. In addition, the Kd in experiment [3] was less than 400 nM.
Consider `C[C@@H](Nc1nc(Cl)nc2c1CN(C(=O)N1C[C@H]3CN(C)C[C@H]3C1)C2)c1cccc(C(F)F)c1F` [Example 414], for which the concentration for half-maximal inhibition (IC50) in experiment [1] and in experiment [2] was less than 1000 nM throughout. The dissociation constant Kd in experiment [3] is less than 400 nM.
`Cc1c(C(F)F)cccc1[C@@H](C)Nc1nc(Cl)nc2c1CN(C(=O)N1CCOCC1)C2` [Example 492]: the IC50 in experiment [1] and in experiment [2] was less than 1000 nM each time. Also, the Kd in experiment [3] is less than 400 nM.
Take `COc1cccnc1C(=O)N1CCc2nc(Cl)nc(N[C@H](C)c3cc(N)cc(C(F)(F)F)c3)c2C1` [Example 232]: the half-maximal inhibitory concentration (IC50) in experiment [1] and in experiment [2] was more than 1000 nM in each case. Also, the equilibrium dissociation constant (Kd) in experiment [3] is more than 400 nM.
In the case of `C[C@@H](Nc1nc(Cl)nc2c1CN(S(=O)(=O)C1CNC1)C2)c1cc(N)cc(C(F)(F)F)c1` [Example 48], the half-maximal inhibitory concentration (IC50) in experiment [1] was more than 1000 nM; in experiment [2] it was less than 1000 nM. Besides, in experiment [3], the dissociation constant (Kd) was less than 400 nM.
With `C[C@@H](Nc1nc(Cl)nc2c1CN(C(=O)C1(C)CN(C)C1)C2)c1cc(N)cc(C(F)(F)F)c1` [Example 265], the concentration for half-maximal inhibition (IC50) in experiment [1] and in experiment [2] was less than 1000 nM in each case. Further, the Kd in experiment [3] was less than 400 nM.
Take `C[C@@H](Nc1nc(Cl)nc2c1CN(S(=O)(=O)C1CC(F)(F)C1)CC2)c1cc(N)cc(C(F)(F)F)c1` [Example 456]: the IC50 in experiment [1] and in experiment [2] was less than 1000 nM each time. Besides, the equilibrium dissociation constant (Kd) in experiment [3] is less than 400 nM.
For `COc1ncc(C(=O)N2Cc3nc(Cl)nc(N[C@H](C)c4cc(N)cc(C(F)(F)F)c4)c3C2)cn1` [Example 60], the half-maximal inhibitory concentration (IC50) is less than 1000 nM in experiment [1] and more than 1000 nM in experiment [2]. For the same molecule, in experiment [3], the Kd is less than 400 nM.
For `C[C@@H](Nc1nc(Cl)nc2c1CN(C(=O)N1CCS(=O)(=O)CC1)C2)c1cc(N)cc(C(F)(F)F)c1` [Example 148], the half-maximal inhibitory concentration (IC50) in experiment [1] and in experiment [2] was less than 1000 nM throughout. For the same molecule, the Kd in experiment [3] was less than 400 nM.
